Reference: ChEMBL document CHEMBL5584344, “Discovery of Dehydrogenated Imipridone Derivatives as Activators of Human Caseinolytic Protease P” (J Med Chem, 2024)
Calls of active or inactive are those of the source. The calls are words filed in the database; no cut-off is given here.

Assays:
MIA PaCa-2 [1] = experiment: Induction of apoptosis in human MIA PaCa-2 cells transfected with empty vector assessed as necrotic cells at 100 nM measured after 72 hrs by Annexin V-FITC/propidium iodide staining based flow cytometric analysis (reference value: 1.18%); format: functional
HL-60 = conditions: Homo sapiens, dose 100-500 nM, time 48.0 hrs
MIA PaCa-2 [2] = experiment: Induction of apoptosis in human MIA PaCa-2 cells overexpressing MTS-ClpP-OE assessed as necrotic cells at 100 nM measured after 72 hrs by Annexin V-FITC/propidium iodide staining based flow cytometric analysis (reference value: 3.31%); format: functional
MIA PaCa-2 [3] = conditions: Homo sapiens, dose 50-200 nM, time 48.0 hrs
MIA PaCa-2 [4] = experiment: Induction of apoptosis in human MIA PaCa-2 cells transfected with shNC assessed as late apoptotic cells at 200 nM measured after 72 hrs by Annexin V-FITC/propidium iodide staining based flow cytometric analysis (reference value: 4.02%); format: functional
[5] = Acute toxicity in female BALB/c mouse assessed as effect on body weight at 200 mg/kg administered via oral gavage measured upto 7 days; format: organism-based; conditions: in vivo, 168 h, time < 7 day
MIA PaCa-2 [6] = conditions: Homo sapiens, dose 100-500 nM, time 48.0 hrs
MIA PaCa-2 [7] = conditions: Homo sapiens, dose 50.0 nM, time 72.0 hrs
MIA PaCa-2 [8] = conditions: Homo sapiens, dose 50-200 nM, time 48.0 hrs; remark: listed apart in the source
[9] = molecular target: Voltage-gated inwardly rectifying potassium channel KCNH2 (Homo sapiens, UniProt Q12809); experiment: Inhibition of human ERG expressed in HEK293 cells at 1 uM by automated patch clamp assay; format: toxicity, cell-based; conditions: hek293, 1 µM
HCT-116 [10] = conditions: Homo sapiens, dose 100-500 nM, time 48.0 hrs
[11] = Acute toxicity in female BALB/c mouse assessed as effect on kidney at 200 mg/kg administered via oral gavage measured after 7 days by H and E staining based analysis; format: organism-based; conditions: in vivo, 168 h, time 7 day
HCT-116 [12] = conditions: Homo sapiens, dose 100-500 nM, time 48.0 hrs; remark: listed apart in the source
MIA PaCa-2 [13] = experiment: Induction of apoptosis in human MIA PaCa-2 cells assessed as late apoptotic cells at 100 nM measured after 72 hrs by Annexin V-FITC/propidium iodide staining based flow cytometric analysis (reference value: 3.59%); format: functional
MIA PaCa-2 [14] = experiment: Induction of apoptosis in human MIA PaCa-2 cells transfected with […] assessed as viable cells at 200 nM measured after 72 hrs by Annexin V-FITC/propidium iodide staining based flow cytometric analysis (reference value: 86.7%); format: functional; conditions: read-out: Activity

Chain of Voltage-gated inwardly rectifying potassium channel KCNH2 (Q12809 whole entry): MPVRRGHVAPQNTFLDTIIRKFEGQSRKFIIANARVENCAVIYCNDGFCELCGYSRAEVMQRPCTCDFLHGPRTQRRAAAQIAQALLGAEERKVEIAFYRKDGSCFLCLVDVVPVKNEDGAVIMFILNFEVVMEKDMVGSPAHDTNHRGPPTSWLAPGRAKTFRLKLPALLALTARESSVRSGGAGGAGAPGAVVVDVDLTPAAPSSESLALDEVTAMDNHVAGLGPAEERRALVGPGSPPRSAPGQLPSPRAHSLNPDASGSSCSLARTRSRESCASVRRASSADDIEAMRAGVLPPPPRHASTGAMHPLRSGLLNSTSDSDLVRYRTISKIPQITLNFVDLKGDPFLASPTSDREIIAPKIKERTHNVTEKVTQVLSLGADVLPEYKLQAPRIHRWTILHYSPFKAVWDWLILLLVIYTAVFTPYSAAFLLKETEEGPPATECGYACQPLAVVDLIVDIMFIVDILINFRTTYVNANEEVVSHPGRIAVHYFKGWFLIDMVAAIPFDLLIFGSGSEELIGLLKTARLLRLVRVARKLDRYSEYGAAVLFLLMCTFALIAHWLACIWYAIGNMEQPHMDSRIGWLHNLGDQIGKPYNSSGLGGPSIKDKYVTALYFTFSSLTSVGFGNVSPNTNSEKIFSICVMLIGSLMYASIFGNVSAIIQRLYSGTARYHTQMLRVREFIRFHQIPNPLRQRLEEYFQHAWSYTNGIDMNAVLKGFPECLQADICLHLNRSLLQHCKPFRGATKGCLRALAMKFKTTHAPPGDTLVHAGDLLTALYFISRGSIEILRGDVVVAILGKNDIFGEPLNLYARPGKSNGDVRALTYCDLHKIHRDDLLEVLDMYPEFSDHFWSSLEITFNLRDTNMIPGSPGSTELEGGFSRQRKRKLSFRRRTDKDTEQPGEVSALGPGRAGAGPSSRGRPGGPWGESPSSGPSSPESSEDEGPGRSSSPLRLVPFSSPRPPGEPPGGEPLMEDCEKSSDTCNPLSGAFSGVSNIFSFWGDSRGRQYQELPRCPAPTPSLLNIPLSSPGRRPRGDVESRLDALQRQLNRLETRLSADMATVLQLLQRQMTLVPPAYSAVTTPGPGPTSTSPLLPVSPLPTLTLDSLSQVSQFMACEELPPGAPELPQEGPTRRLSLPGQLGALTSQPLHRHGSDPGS

O=c1c2c(n3ccnc3n1Cc1ccc(C(F)(F)F)cc1)CCN(Cc1cccc(Cl)c1)C2
Activity (MIA PaCa-2 [1]): 0.61%
inhibition (HL-60): Active
Activity (MIA PaCa-2 [2]): 5.74%
inhibition (MIA PaCa-2 [3]): Dose-Dependent Effect
Activity (MIA PaCa-2 [4]): 17.1%
Activity [5]: Non-Toxic
inhibition (MIA PaCa-2 [6]): Active
inhibition (MIA PaCa-2 [7]): Active
inhibition (MIA PaCa-2 [8]): Dose-Dependent Effect
inhibition (INH) [9]: Not Active
inhibition (HCT-116 [10]): Active
Activity [11]: Non-Toxic
inhibition (HCT-116 [12]): Active
Activity (MIA PaCa-2 [13]): 5.48%
viability at 0.2 µM (MIA PaCa-2 [14]): 84.7%
